Results as given in ChEMBL document CHEMBL5303708, “ECBD screening data for assay EOS300033” (2021).
Residues, ends and D or L forms follow the SMILES beside them. *: point of attachment. Cbz = O=C(OCc1ccccc1)*

System: SARS-CoV-2
Design: species or system Chlorocebus sabaeus, Vero C1008
Details: assay_design cell number determination; assay_format cell based format; assay_stage confirmatory assay; assaysupport stable transfection; bao_tags Fluorescence imaging cell growth inhibition assay; bioassay Fluorescence imaging cell growth inhibition assay; bioassay_setting in vitro; bioassay_type functional; detectioninstrument ArrayScan XTI HCS Reader; detectionmethod fluorescence microscopy

Row | SMILES | IC50 relative [µM]
1 | O=C(Nc1ccc(Cl)c(Cl)c1)Nc1ccc(Cl)c(Cl)c1 | 5.12
2 | Nc1nc(S)c2ncn(C3OC(CO)C(O)C3O)c2n1 (stereo not drawn) | 16.2319
3 | CS(=O)(=O)O.Cc1c(C(=O)c2cccc3ccccc23)c2cccc3c2n1[C@H](CN1CCOCC1)CO3 | 11.9328
4 | CC(C)(C)C(=O)/C(=C/c1cccc([N+](=O)[O-])c1)n1cncn1 | 4.9629
5 | COc1cc(/C=C2\SC(=O)NC2=O)ccc1Oc1ccc(C#N)cc1C(F)(F)F | 49.4361
6 | COc1cc2c(NC3CCN(C4CCCCC4)CC3)nc(N3CCCN(C(C)C)CC3)nc2cc1OCCCN1CCCCC1 | 17.2224
7 | O=c1cc(N2CCOCC2)oc2c(-c3cccc4c3sc3ccccc34)cccc12 | 145.964
8 | CC(C)(C)c1cc(C=C(C#N)C#N)cc(Br)c1O | 7.2055
9 | CC(C)(C)c1ccccc1Oc1ncccc1NC(=O)Nc1ccc(OC(F)(F)F)cc1 | 9.5826
10 | C/C(=C\c1ccc(C(=O)O)cc1)c1ccc2c(c1)C(C)(C)CCC2(C)C | 54.1303
11 | COc1cc2ncnc(Nc3cccc(Br)c3)c2cc1OC | 13.3328
12 | Nc1ncnc2c1ncn2[C@@H]1CC[C@@H](O)[C@H]1O | 3.6981
13 | C[C@@H]1COCCN1c1cc(=O)n2c(n1)N(Cc1cncc(Cl)c1)[C@H](C(F)(F)F)CC2 | 19.8832
14 | O=C(C1CC1)N1CC[C@@H](Cc2n[nH]c(=O)n2-c2ccc(-c3ccc4occc4c3)cc2)C1 | 32.5565
15 | CCN(CC)c1ccc2cc(-c3nc4ccccc4[nH]3)c(=O)oc2c1 | 0.3531
16 | Nc1ncc(-c2ccnc(Nc3ccncc3)n2)c(CC2CC2)n1 | 12.577
17 | CC(C)(O)CNc1ncc(-c2ccnc(Nc3ccnc(Cl)c3)n2)c(CC2CC2)n1 | 793.9225
18 | CCCCn1c(NC(=O)c2cccs2)c(C#N)c2nc3ccccc3nc21 | 13.3332
19 | Cl.O=C(O)Cc1cccc(OCCCN(Cc2cccc(C(F)(F)F)c2Cl)CC(c2ccccc2)c2ccccc2)c1 | 16.3401
20 | CCc1c(-c2ccc3[nH]ncc3c2)cnc(N)c1-c1ccc(O)cc1 | 51.0608
21 | Cc1ccc(Oc2nc3cc(-c4ccc(-c5ccccc5)cc4)c(Cl)cc3[nH]2)cc1C(=O)O | 351.9839
22 | N#Cc1cccc(C#N)c1-c1nc2c3ccc(Cl)cc3c3ccccc3c2[nH]1 | 15.4145
23 | COc1ccc(-c2c[nH]c3nccc(-c4ccsc4)c23)c(OC)c1 | 28.2582
24 | O=C(O)c1ccc(N2C(=O)/C(=C\c3ccc(-c4ccc([N+](=O)[O-])cc4)o3)C=C2c2ccccc2)cc1 | 651.6971

Row | SMILES | IC50 relative [µM]
25 | Cl.Cl.N[C@H]1CC[C@H](N[C@@H]2C[C@H]2c2ccccc2)CC1 | 65.2065
26 | CS(=O)(=O)O.Cc1c(O)cccc1C(=O)NC(CSc1ccccc1)C(O)CN1CC2CCCCC2CC1C(=O)NC(C)(C)C (stereo not drawn) | 15.1399
27 | Cl.O=C(c1c2ccccc2cc2ccccc12)N1CCC(N2CCC[C@@H](C(=O)N3CCOCC3)C2)CC1 | 4.1627
28 | Cc1cnc(Nc2ccc(F)cc2Cl)nc1-c1c[nH]c(C(=O)N[C@H](CO)c2cccc(Cl)c2)c1 | 9.1133
29 | Nc1nc(O)c2[nH]nnc2n1 [8-AZAGUANINE] | 3.8962
30 | Nc1nc(N)c2nc(CNc3ccc(C(=O)N[C@@H](CCC(=O)O)C(=O)O)cc3)cnc2n1 [AMINOPTERIN] | 0.3554
31 | CNCc1ccc(-c2cc(-c3nc(-c4ccc(S(=O)(=O)C(C)C)cc4)cnc3N)on2)cc1 [BERZOSERTIB] | 33.669
32 | Oc1c(Cl)cc(Cl)cc1Sc1cc(Cl)cc(Cl)c1O [BITHIONOL] | 17.6664
33 | CCCCOCCOc1ccc(-c2ccc3c(c2)/C=C(/C(=O)Nc2ccc([S@@+]([O-])Cc4cncn4CCC)cc2)CCCN3CC(C)C)cc1 [CENICRIVIROC] | 52.7809
34 | C[C@@H]1C[C@@H]([C@H](O)CC2CC(=O)NC(=O)C2)C(=O)[C@@H](C)C1 [CYCLOHEXIMIDE] | 2.4209
35 | CC1=NN(c2ccc(C)c(C)c2)C(=O)/C1=N\Nc1cccc(-c2cccc(C(=O)O)c2)c1O [ELTROMBOPAG] | 56.9757
36 | COc1ccccc1[C@H](Cn1c(=O)n(C(C)(C)C(=O)O)c(=O)c2c(C)c(-c3ncco3)sc21)OC1CCOCC1 [FIRSOCOSTAT] | 0.1223
37 | CC[n+]1c(-c2ccccc2)c2cc(N)ccc2c2ccc(N)cc21.[Br-] [HOMIDIUM BROMIDE] | 96.2744
38 | CC(=O)[C@]1(O)Cc2c(O)c3c(c(O)c2[C@@H](O[C@H]2C[C@H](N)[C@H](O)[C@H](C)O2)C1)C(=O)c1ccccc1C3=O.Cl [IDARUBICIN HYDROCHLORIDE] | 28.5706
39 | CN(Cc1cnc2nc(N)nc(N)c2n1)c1ccc(C(=O)N[C@@H](CCC(=O)O)C(=O)O)cc1 [METHOTREXATE] | 0.0551
40 | CC(C)C[C@@H](C=O)NC(=O)[C@H](CC(C)C)NC(=O)[C@H](CC(C)C)NC(=O)OCc1ccccc1 [MG-132] (Cbz-Leu-Leu-Leu-aldehyde) | 4.4656
41 | COc1ccc2c(c1)[C@]1(C[C@H]1c1ccc3c(/C=C/c4ccc(CN5C[C@@H](C)O[C@@H](C)C5)cc4)n[nH]c3c1)C(=O)N2 [OCIFISERTIB] | 14.7188
42 | C#CCC(Cc1cnc2nc(N)nc(N)c2n1)c1ccc(C(=O)N[C@@H](CCC(=O)O)C(=O)O)cc1 (stereo partly drawn) [PRALATREXATE] | 0.0052
43 | Cn1c(Nc2ccc(C(F)(F)F)cc2)nc2cc(Oc3ccnc(-c4ncc(C(F)(F)F)[nH]4)c3)ccc21 [RAF-265] | 10.7684
44 | CNC(=O)c1cc(Oc2ccc(NC(=O)Nc3ccc(Cl)c(C(F)(F)F)c3)c(F)c2)ccn1 [REGORAFENIB] | 16.4573
45 | CN(C)c1cccc(-c2c3c(=O)n(-c4ccccc4Cl)[nH]c3cc(=O)n2C)c1 [SETANAXIB] | 73.5962
46 | O=C(Nc1ccc(Cl)cc1)Nc1ccc(Cl)c(Cl)c1 [TRICLOCARBAN] | 8.2868
47 | COc1cc(NCc2ccc3nc(N)nc(N)c3c2C)cc(OC)c1OC [TRIMETREXATE] | 0.3486
48 | CC(C)(C)c1cc(C=C(C#N)C#N)cc(C(C)(C)C)c1O [TYRPHOSTIN A9] | 0.8215
